How the values were obtained:
PARG (389-976) = PARG (389-976) (Homo sapiens (Human), UniProt Q86W56); assay: PARG enzyme inhibition assay (TR-FRET); type: biochemical
Procedure: PARG in vitro assays were conducted in standard 384-well plates in a total volume of 15 μL. 5 μL of PARG (389-976) (manufactured by Chempartner Chemical Co., Ltd.) in buffer (50 mM Tris-HCL 7.5, 30 mM KCl, 1 mM EDTA, 3 mM DTT, tween-20 0.01%, BSA 0.025%) was added at a final concentration of 1.5 pM to the 384-well plates containing the compounds to be tested, which was incubated for 30 min at room temperature. To the above mixture was added 5 μL Bio PARylated His-TEV-PARP1(2-1014) substrate (manufactured by Chempartner Chemical Co., Ltd.) at a final concentration of 12 nM, after addition, the resulting mixture was incubated for 30 minutes at room temperature. Then to the mixture was added detection reagent (5 μL) which was buffered with 50 mM Tris-HCL 7.5, 30 mM KCl, 1 mM EDTA, 3 mM DTT, tween-20 0.01%, BSA 0.025%, and consisted of 3 μM of compound PDD00017273 and 9 nM Mab anti-6HIS XL665 (Cisbio: 61HISXLA) and 0.9 nM streptavidin affinity terbium cryptate (Cisbio:610SATLA), all at 3× working concentrations (final concentrations of 1 μM, 3 nM and 0.3 nM, respectively). After 120 min incubation in the dark at room temperature, TR-FRET signals were measured at Ex 340 and Em 665 and Em 615. The ratio for each well was calculated as Em 665/Em 615 and the compound inhibition rate was calculated based on the obtained data.

HCC1395 = assay: CTG assay for proliferation inhibition of cell lines; type: cell-based; conditions: HCC1395, 7 days, CellTiter Glo
Procedure: (§1) The assay was conducted on either 384-well plates or 96-well plates. The procedures are as follows:
(§2) The cell suspensions were added to 384- or 96-well plates (384-well plate: 50 μL; 96-well plate: 100 μL) except for peripheral wells. The plates were incubated in a carbon dioxide incubator overnight, HCC1395, HCC1428 and NCI-H460 were placed in a carbon dioxide incubator of 5%, […] overnight. Prepared compounds (10 concentration gradients by serial 3-fold dilution) were added to the wells using the HPD300 micro-dosing instrument. The cell plates were incubated in a carbon dioxide incubator for 7 days. HCC1395, HCC1428 and NCI-H460 were incubated in a 5%, 37° CO2 incubator. On the day of plate measurement, 384- or 96-well plates were first equilibrated at room temperature for 10-30 minutes, then to the 384- or 96-well plate was added CellTiter Glo reagent (384-well plate: 25 μL; 96-well plate: 100 μL), shaken for 10 minutes away from light, and incubated for 10 minutes. The incubated plates were placed into Victor NIVO reader plates, and the pharmacodynamic inhibition curves were plotted and IC50 values were calculated using XLFit.

HCC1428 = assay: as above; type: cell-based; conditions: HCC1428, 7 days, CellTiter Glo
Procedure: as §1, §2

[1] = class symbol, Bio PARylated His-TEV-PARP1 substrate, TR-FRET
[2] = numeric value in parentheses under the class symbol

Sequence of PARG (389-976) (Q86W56 389-976): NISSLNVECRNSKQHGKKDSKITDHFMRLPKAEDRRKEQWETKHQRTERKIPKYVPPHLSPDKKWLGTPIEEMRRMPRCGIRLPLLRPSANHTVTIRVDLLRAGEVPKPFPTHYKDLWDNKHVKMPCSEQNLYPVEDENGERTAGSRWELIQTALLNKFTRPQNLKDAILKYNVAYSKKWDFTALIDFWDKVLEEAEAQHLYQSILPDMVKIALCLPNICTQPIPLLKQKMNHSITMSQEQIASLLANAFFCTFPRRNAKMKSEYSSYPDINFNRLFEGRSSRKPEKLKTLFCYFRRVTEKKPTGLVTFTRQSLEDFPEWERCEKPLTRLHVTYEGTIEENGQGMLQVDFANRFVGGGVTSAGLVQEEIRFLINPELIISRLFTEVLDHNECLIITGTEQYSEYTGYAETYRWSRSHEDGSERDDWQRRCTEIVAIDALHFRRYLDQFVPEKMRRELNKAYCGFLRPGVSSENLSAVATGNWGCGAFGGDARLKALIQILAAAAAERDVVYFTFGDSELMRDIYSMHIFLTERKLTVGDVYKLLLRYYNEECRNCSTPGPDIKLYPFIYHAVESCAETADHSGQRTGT

| Compound | IC50 (PARG (389-976); [1]) | IC50 (HCC1395) | IC50 (HCC1428) | IC50 (PARG (389-976); [2]) |
| --- | --- | --- | --- | --- |
| CC(C)S(=O)(=O)N1CC=C(c2cc(S(=O)(=O)NC3(C#N)CC3)cc3c(-c4nnc(C(F)F)o4)nn(C)c23)CC1 [Compound 6] | < 1 nM | 0.442 µM |  |  |
| CC(C)S(=O)(=O)N1CCC(c2cc(S(=O)(=O)NC3(C#N)CC3)cc3c(-c4nnc(C(F)(F)F)s4)nn(C)c23)=C(CO)C1 [Compound 73] | < 1 nM | 0.0462 µM | 0.0576 µM |  |
| CC(C)S(=O)(=O)N1CC=C(c2cc(S(=O)(=O)NC3(C#N)CC3)cc3c(-c4cc(C(F)(F)F)nn4C)nn(C)c23)CC1 [Compound 81] | 100 to 1000 nM |  |  |  |
| CC(C)S(=O)(=O)N1CCC(c2cc(S(=O)(=O)NC3(C#N)CC3)cc3c(-c4nnc(C(F)F)s4)nn(C)c23)=C(C=O)C1 [Compound 70] | < 1 nM | 0.27 µM | 0.343 µM |  |
| CC(C)S(=O)(=O)N1CCC(O)(c2cc(S(=O)(=O)NC3(C#N)CC3)cc3c(-c4nnc(C(F)F)s4)nn(C)c23)CC1 [Compound 28] | 1 to 10 nM |  |  |  |
| CC(C)S(=O)(=O)N1CC=C(c2cc(S(=O)(=O)NC3(C#N)CC3)cc3c2nnn3-c2nnc(C(F)(F)F)s2)CC1 [Compound 80] | 10 to 100 nM |  |  |  |
| CC(C)S(=O)(=O)N1CCC(c2cc(S(=O)(=O)NC3(C#N)CC3)cc3c(-c4nnc(C(F)(F)F)s4)nn(C)c23)=C(CN(C)C)C1 [Compound 74] | 1 to 10 nM | 0.156 µM | 0.0621 µM |  |
| CC(C)S(=O)(=O)c1ccc(-c2cc(S(=O)(=O)NC3(C#N)CC3)cc3c(-c4nnc(C(F)F)s4)nn(C)c23)nc1 [Compound 63] | 100 to 1000 nM |  |  |  |
| CC(C)S(=O)(=O)N1CC=C(c2cc(S(=O)(=O)NC3(C(N)=O)CC3)cc3c(-c4nnc(C(F)F)s4)nn(C)c23)CC1 [Compound 17] | 1 to 10 nM |  |  |  |
| CC(C)S(=O)(=O)N1CCC=C(c2cc(S(=O)(=O)NC3(C#N)CC3)cc3c(-c4nnc(C(F)F)s4)nn(C)c23)C1 [Compound 4] | 1 to 10 nM |  |  |  |
| CC(C)S(=O)(=O)N1CCC(c2cc(S(=O)(=O)NC3(C#N)CC3)cc3c(-c4nnc(C(F)(F)F)s4)nn(C)c23)=C(C(=O)O)C1 [Compound 54] | 10 to 100 nM |  |  |  |
| CC(C)S(=O)(=O)c1ccc(-c2cc(S(=O)(=O)NC3(C#N)CC3)cc3c(-c4nnc(C(F)(F)F)s4)nn(C)c23)nc1 [Compound 49] | 100 to 1000 nM |  |  |  |
| CC(C)S(=O)(=O)N1CCC(c2cc(S(=O)(=O)NC3(C#N)CC3)cc3c(-c4nnc(C(F)F)s4)nn(C)c23)=C(F)C1 [Compound 68] | < 1 nM |  | 0.47 µM |  |
| CC(C)S(=O)(=O)N1CCC(c2cc(S(=O)(=O)NC3(C#N)CC3)cc3c(-c4nnc(C(F)(F)F)s4)nn(C)c23)=C(C#N)C1 [Compound 64] | < 1 nM |  | 0.0882 µM |  |
| Cn1nc(-c2nnc(C(F)F)s2)c2cc(S(=O)(=O)NC3(C#N)CC3)cc(C3=CCN(S(=O)(=O)C4CC4)CC3)c21 [Compound 11] | < 1 nM |  |  |  |
| CN(C)S(=O)(=O)N1CCN(c2cc(S(=O)(=O)NC3(C#N)CC3)cc3c(-c4nnc(C(F)F)s4)nn(C)c23)CC1 [Compound 3] | 1 to 10 nM | 0.386 µM |  | 1.64 nM |
| CC(C)Sc1ncc(-c2cc(S(=O)(=O)NC3(C#N)CC3)cc3c(-c4nnc(C(F)F)s4)nn(C)c23)cn1 [Compound 41] | 100 to 1000 nM |  |  |  |
| COCCn1nc(-c2nnc(C(F)F)s2)c2cc(S(=O)(=O)NC3(C#N)CC3)cc(N3CCN(S(=O)(=O)C(C)C)CC3)c21 [Compound 2] | < 1 nM |  | 0.413 µM | 0.27 nM |
| Cc1cc(Cn2c(=O)n(Cc3cnc(C)s3)c(=O)c3cc(S(=O)(=O)NC4(C)CC4)ccc32)n(C)n1 [PDD 00017273, reference compound] | 1 to 10 nM |  |  |  |
| CC(C)S(=O)(=O)N1CCN(c2cc(S(=O)(=O)NC3(C#N)CC3)cc3c2cnn3-c2nnc(C(F)F)s2)CC1 [Compound 8] | 1 to 10 nM |  |  |  |
| Cn1nc(-c2nnc(C(F)(F)F)s2)c2cc(S(=O)(=O)NC3(C#N)CC3)cc(C3=CCN(S(=O)(=O)c4ccccc4)CC3)c21 [Compound 50] | 10 to 100 nM |  | 2.33 µM |  |
| CC(C)S(=O)(=O)N1CC=C(c2cc(S(=O)(=O)NC3(C#N)CC3)cc3c(-c4nnc(C(F)F)s4)nn(C)c23)C(F)(F)C1 [Compound 67] | < 1 nM |  | 0.203 µM |  |
| CC1=C(c2cc(S(=O)(=O)NC3(C#N)CC3)cc3c(-c4nnc(C(F)(F)F)s4)nn(C)c23)CCN(S(=O)(=O)C(C)C)C1 [Compound 75] | < 1 nM | 0.0352 µM |  |  |
| Cn1nc(-c2nnc(C(F)(F)F)s2)c2cc(S(=O)(=O)NC3(C#N)CC3)cc(C3=CCN(S(=O)(=O)c4cccnc4)CC3)c21 [Compound 51] | 1 to 10 nM |  | 2.52 µM |  |
| CC(C)S(=O)(=O)N1CCC(c2cc(S(=O)(=O)NC3(C#N)CC3)cc3c(-c4nnc(C(F)F)s4)nn(C)c23)=C(C(=O)O)C1 [Compound 34] | 10 to 100 nM |  |  |  |
| CC(C)S(=O)(=O)N1CC=C(c2cc(S(=O)(=O)NC3(C#N)CC3)cc3c(-c4nnc(C(F)(F)F)s4)nn(Cc4ccccc4)c23)CC1 [Compound 62] | 10 to 100 nM |  |  |  |
| CC(C)S(=O)(=O)c1ncc(-c2cc(S(=O)(=O)NC3(C#N)CC3)cc3c(-c4nnc(C(F)F)s4)nn(C)c23)cn1 [Compound 43] | 100 to 1000 nM |  |  |  |
| COCCn1nc(-c2nnc(C(F)F)s2)c2cc(S(=O)(=O)NC3(C#N)CC3)cc(C3=CCN(S(=O)(=O)C(C)C)CC3)c21 [Compound 1] | < 1 nM |  |  | 0.2 nM |
| CC(C)S(=O)(=O)N1CC=C(c2cc(S(=O)(=O)NC3(C#N)CC3)cc3c(-c4nnc(C(F)F)s4)csc23)CC1 [Compound 10] | 1 to 10 nM |  |  |  |

Further lines, results first:

| IC50 (PARG (389-976); [1]) | IC50 (HCC1395) | IC50 (HCC1428) | IC50 (PARG (389-976); [2]) | Compound |
| --- | --- | --- | --- | --- |
| 1 to 10 nM | 1.38 µM | 1.06 µM |  | CC(C)S(=O)(=O)N1Cc2cn(-c3cc(S(=O)(=O)NC4(C#N)CC4)cc4c(-c5nnc(C(F)F)s5)nn(C)c34)nc2C1 [Compound 52] |
| < 1 nM | 0.0475 µM | 0.0472 µM |  | CC(C)S(=O)(=O)N1CCN(c2c(F)c(S(=O)(=O)NC3(C#N)CC3)cc3c(-c4nnc(C(F)(F)F)s4)nn(C)c23)CC1 [Compound 56] |
| < 1 nM | 0.308 µM | 0.342 µM |  | CC(C)S(=O)(=O)N1CCC(c2cc(S(=O)(=O)NC3(C#N)CC3)cc3c(-c4nnc(C(F)F)s4)nn(C)c23)=C(CN(C)C)C1 [Compound 71] |
| 1 to 10 nM |  |  |  | CC(C)[S+]([O-])c1ncc(-c2cc(S(=O)(=O)NC3(C#N)CC3)cc3c(-c4nnc(C(F)F)s4)nn(C)c23)cn1 (centres unmarked) [Compound 42] |
| 10 to 100 nM |  |  |  | CC(C)S(=O)(=O)N1CC=C(c2cc(S(=O)(=O)NC3(C(N)=O)CC3)cc3c(-c4nnc(C(F)(F)F)s4)nn(C)c23)CC1 [Compound 57] |
| < 1 nM | 0.836 µM | 0.208 µM |  | CC(C)S(=O)(=O)N1CCC(c2cc(S(=O)(=O)NC3(C#N)CC3)cc3c(-c4nnc(C(F)(F)F)s4)nn(C)c23)=C(C(N)=O)C1 [Compound 55] |
| 10 to 100 nM |  |  |  | CC(C)SC1CC=C(c2cc(S(=O)(=O)NC3(C#N)CC3)cc3c(-c4nnc(C(F)F)s4)nn(C)c23)CC1 (centres unmarked) [Compound 29] |
| 1 to 10 nM |  |  |  | CC(C)S(=O)(=O)N1CC=C(c2cc(S(=O)(=O)NC3(C#N)CC3)cc3c2ccn3-c2nnc(C(F)(F)F)s2)CC1 [Compound 65] |
| < 1 nM |  |  |  | CC(C)S(=O)(=O)N1CCN(c2cc(S(=O)(=O)NC3(C#N)CC3)cc3c(-c4nnc(C(F)(F)F)s4)nn(C)c23)C=N1 [Compound 85] |
| 1 to 10 nM |  | 1.91 µM |  | CC(C)S(=O)(=O)c1ccc(-c2cc(S(=O)(=O)NC3(C#N)CC3)cc3c(-c4nnc(C(F)(F)F)s4)nn(C)c23)cn1 [Compound 47] |
| 1 to 10 nM |  |  |  | CC(C)CS(=O)(=O)N1CC=C(c2cc(S(=O)(=O)NC3(C#N)CC3)cc3c(-c4nnc(C(F)F)s4)nn(C)c23)CC1 [Compound 13] |
| 1 to 10 nM |  |  |  | CC(C)S(=O)(=O)N1CCC(O)(c2cc(S(=O)(=O)NC3(C#N)CC3)cc3c(-c4nnc(C(F)F)s4)n[nH]c23)CC1 [Compound 27] |
| 1 to 10 nM |  |  |  | CC(C)S(=O)(=O)N1CC=C(c2cc(S(=O)(=O)NC3(C#N)CC3)cc3c(-c4nnc(C(F)F)s4)nn(CC(N)=O)c23)CC1 [Compound 66] |
| < 1 nM |  | 1.7 µM |  | CC(C)[S+]([O-])c1ccc(-c2cc(S(=O)(=O)NC3(C#N)CC3)cc3c(-c4nnc(C(F)(F)F)s4)nn(C)c23)cn1 (centres unmarked) [Compound 46] |
